The text below walks through data of US4818684A, “Auto-anti-idiotypic monoclonal antibodies to steroid receptors and uses thereof” (The Trustees of Columbia University in the City of New York, priority 1985, dated 1989).

The target in test [1] is affinity purified antisteroid. Put plainly: Competitive inhibition of binding of [3H] triamcinolone to affinity purified antisteroid. Set-up: species or system rabbit. Particulars: for Kd: read-out: Competitive inhibition of binding of [3H] triamcinolone, Affinity purified (apparent Kd). How it is done: Thirty to 40 ml of serum obtained in part (a) of this example were passed slowly (±3.5 ml/hr) through the AH-Sepharose 4B triamcinolone column prepared according to (b) above. After washing with PBS to remove all unbound protein, the antibody was eluted with 0.2 M glycine pH 2.2 or 2.8. The eluate was dialyzed against 2 liters, 0.01 M PBS buffer pH 7.4 and the buffer changed at least 4 times before concentrating by vacuum dialysis at 4° C.
the glucocorticoid receptor, unprocessed rabbit serum 540, affinity
purified antisteroid and antisteroid Fab fragments. Assays with the […]

The target in test [2] is antisteroid Fab fragments. Kind of test: Competitive inhibition of binding of [3H] triamcinolone to antisteroid Fab fragments. Particulars: read-out: Competitive inhibition of binding of [3H] triamcinolone, Rabbit serum 541 Fab fragments (apparent Kd). How it is done: To the dialysate was added 0.1 M dithiothreitol (DTT) (15 microliters) EDTA (2 mg) and 0.2 mg mercuripapain (5 microliters) and the solution was incubated overnight at 37° C. It was then dialyzed against 4 l distilled H2 O for 3 hrs and then against 1 liter of PBS for 2 hrs and then applied to a Sephadex G100 column (1×5×90 cms) and eluted (±5 ml/hr) with 0.01 M PBS pH 7.4. One ml fractions were collected. Fractions 53-79 were combined and examined at 280 nm for protein content. Undigested IgG and Fc fragments were removed by passage through a protein A Sepharose column (5 ml bed volume); unbound Fab was eluted with 0.01 M PBS pH 7.4. The eluate was concentrated by vacuum dialysis.

Test [3] addresses anti-steroid (unprocessed rabbit serum 540). Kind of test: Competitive inhibition of binding of [3H] triamcinolone to anti-steroid, unprocessed rabbit serum 540. Particulars: for Kd: read-out: Competitive inhibition of binding of [3H] triamcinolone, Rabbit Serum 540 Unprocessed (apparent Kd). How it is done:
FIG. 4. […] See legend to Table 1 for the experimental procedure.
New Zealand white rabbits were immunized by multiple intradermal injections of a total of 1 ml of triamcinolone-BSA (2 mg/ml) in saline emulsified with an equal volume of complete Freunds adjuvant. Booster injections were given three weeks later and then at monthly intervals. Animals were bled bi-weekly from the ear vein and the sera stored at 4° C. until required.

In test [4] the target is T1, binding of 8G11-C6 to partially purified glucocorticoid receptor (Rattus norvegicus, UniProt P06536).
T1 construct: the glucocorticoid receptor was partially purified from rat liver cytosol; from tissue; host or cells: liver cytosol of Sprague-Dawley rats, receptor partially purified by the cited method of Gametchu & Harrison
T1 sequence (P06536 1-795): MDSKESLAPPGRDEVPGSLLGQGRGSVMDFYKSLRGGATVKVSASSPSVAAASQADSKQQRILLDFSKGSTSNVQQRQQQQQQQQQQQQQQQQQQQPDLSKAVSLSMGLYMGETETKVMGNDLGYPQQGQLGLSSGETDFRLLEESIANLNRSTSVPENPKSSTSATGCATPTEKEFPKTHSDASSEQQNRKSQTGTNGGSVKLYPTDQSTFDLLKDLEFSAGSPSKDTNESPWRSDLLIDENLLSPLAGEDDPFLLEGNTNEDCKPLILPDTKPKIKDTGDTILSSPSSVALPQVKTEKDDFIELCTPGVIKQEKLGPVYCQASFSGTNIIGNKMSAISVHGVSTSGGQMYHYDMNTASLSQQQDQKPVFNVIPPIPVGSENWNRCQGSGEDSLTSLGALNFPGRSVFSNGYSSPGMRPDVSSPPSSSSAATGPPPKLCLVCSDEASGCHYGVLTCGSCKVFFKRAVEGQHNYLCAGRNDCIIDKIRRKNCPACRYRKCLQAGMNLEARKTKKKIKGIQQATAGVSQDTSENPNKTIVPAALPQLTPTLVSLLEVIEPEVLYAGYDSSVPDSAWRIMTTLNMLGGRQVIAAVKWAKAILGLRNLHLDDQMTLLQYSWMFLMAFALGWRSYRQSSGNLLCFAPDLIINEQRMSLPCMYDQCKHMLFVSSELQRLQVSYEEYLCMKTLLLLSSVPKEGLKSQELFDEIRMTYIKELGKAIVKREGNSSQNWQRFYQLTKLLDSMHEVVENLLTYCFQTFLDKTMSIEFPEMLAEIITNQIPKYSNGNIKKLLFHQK
Kind of test: ELISA inhibition of binding of 8G11-C6 to partially purified glucocorticoid receptor. Particulars: ELISA (FIG. 11). How it is done: FIG. 11. […] 200 microliters containing 0.54 micrograms protein of a partially purified receptor preparation in 0.1M NaHC03 pH 9.3 was added to the wells of polystyrene plates. These were incubated for 2 hrs at 37° C. Washed 2×with PBS […] 0.02% tween. […] See methods for the methodology employed. The inhibitors used were triamcinolone acetonide ( ), rabbit serum albumin ( ), and triamcinolone - RSA ( ).
A general note: An ELISA detects its analyte on a solid surface through an enzyme-linked reagent.

The subject of test [5] is binding of 8G11-C6 to anti-steroid Fab fragments. Put plainly: ELISA inhibition of binding of 8G11-C6 to anti-steroid Fab fragments. Particulars: ELISA (FIGS. 7, 8, 9). The method, then: Controls with no inhibitor were included.
FIG. 9. […] The method used was similar to that described in the exerimental procedure. […] 200λ of the incubation mixture was then added to microtiter wells previously coated with 10 ng anti-steroid Fab fragments and incubated for 2 hrs at 37° C.
The presence of anti-idiotypic antibodies in the hybridoma culture medium were assayed by a double antibody sandwich ELISA. […] After washing twice with 0.01 M phosphate buffer--0.14M NaCl, pH 7.4, containing 0.05% Tween-20 (PBS-Tween), the culture medium from the hybridomas was added and incubated at 37° C. for 2 hrs. The wells were washed three times with PBS-Tween and 200 microliters of 1:3,000 dilution in PBS-Tween of goat anti-mouse 1gM-1gG horseradish peroxidase (Tago) was added. After incubating 1 hr at 37°, the wells were washed three times with PBS-tween and 200 microliters substrate (7 mg o-phenylenediamine dichloride in 10 ml 0.1 M citrate-phosphate buffer, pH 4.8 containing 5 microliters of 30% H2 O2) was added. Depending on the intensity of the color, the reaction was stopped after 5-10 min by the addition of 50 microliters 8N H2 SO4 and the OD determined (Titretek) at 492 nm.

The target of test [6] is Fab fragments of affinity purified anti-steroid antibodies. Kind of test: Scatchard plot of binding of labeled steroid to Fab fragments of affinity purified anti-steroid antibodies. Set-up: species or system rabbit. The conditions noted are these: curved plot with [3H]TA, linear plot with [3H]-dexamethasone; read-out: Kd for Fab fragments of the anti-steroid, from Scatchard plots. How it is done:
FIG. 3. Scatchard plot of the binding of [^3 H] triamcinolone to Fab fragments of affinity purified anti-steroid antibodies. Fab fragments (0.227 micrograms) were incubated with increasing concentrations of [^3 H] triamcinolone (0.4-62.5nM) in the presence of 0.01M phosphate buffered saline pH 7.4 containing 0.1% gelatin in a total volume of 200 microliters. Total and non-specific binding (50 micromoles triamcinolone acetonide) were determined for each of the [^3 H] triamcinolone levels and all points were in duplicate. After incubating 1 hr at room temperature, add 1 ml cold 5% charcoal/dextran (diluted 1:40 in 0.01M PBS containing 0.1% gelatin) and let stand on ice for 10 min. Centrifuge down the charcoal/dextran, decant the supernatant into scintillation vials and determine the radioactivity.

The next test concerns the target T2, glucocorticoid receptor (Rattus norvegicus, UniProt P06536).
T2 sequence (P06536 1-795): T1 sequence (P06536 1-795)

Turning to `C[C@]12C[C@H](O)[C@H]3[C@@H](CCC4=CC(=O)CC[C@@]43C)[C@@H]1CC[C@@H]2C(=O)CO` [Corticosterone], the Kd was determined as 100 µM in test [1], 100 µM in test [2] and 630 µM in test [3].

Turning to `C[C@@H]1C[C@H]2[C@@H]3CCC4=CC(=O)C=C[C@]4(C)[C@@]3(F)[C@@H](O)C[C@]2(C)[C@@]1(O)C(=O)CO` [Dexamethasone], the Kd is 0.62 µM in test [1], 0.63 µM in test [2] and 0.12 µM in test [3].

Regarding `C[C@]12CCC(=O)C[C@@H]1CC[C@@H]1[C@@H]2CC[C@]2(C)[C@@H](O)CC[C@@H]12` [Dihydrotestosterone], in test [3], the “Competitive inhibition of binding of [3H] triamcinolone, Rabbit Serum 540 Unprocessed (apparent Kd)” value is on record as “had no effect”.

On to `C[C@]12CCC(=O)C=C1CC[C@@H]1[C@@H]2[C@@H](O)C[C@@]2(C)[C@H]1CC[C@]2(O)C(=O)CO` [Hydrocortisone], for which the Kd in test [1] amounted to 100 µM; in test [2] it was 100 µM; in test [3] it was 5 µM.

Take `CC(=O)[C@H]1CC[C@H]2[C@@H]3CCC4=CC(=O)CC[C@]4(C)[C@H]3CC[C@]12C` [Progesterone]: the Kd in test [1], in test [2] and in test [3] was 100 µM in each case.

On to `C[C@]12CC[C@H]3[C@@H](CCC4=CC(=O)CC[C@@]43C)[C@@H]1CC[C@@H]2O` [Testosterone], for which, in test [4], the “effect on the binding of 8G11-C6 to partially purified glucocorticoid receptor” value was “only a slight inhibitory effect”. The “Competitive inhibition of binding of [3H] triamcinolone, Affinity purified (apparent Kd)” value in test [1] was “not inhibited”. In addition, the “Competitive inhibition of binding of [3H] triamcinolone, Rabbit Serum 540 Unprocessed (apparent Kd)” value in test [3] is on record as “not inhibited”. For the same molecule, the “effect on the binding of 8G11-C6 to anti-steroid Fab fragments” value (from here on “effect … to anti-steroid Fab fragments”) in test [5] was “Neither triamcinolone, nor other steroids such as testosterone and estradiol-17β had any effect”.

Regarding `[3H]C1C2=CC(=O)C=C[C@]2(C)[C@@]2(F)[C@@H](O)C[C@@]3(C)[C@@H](C[C@@H](C)[C@]3(O)C(=O)CO)[C@@H]2C1[3H]` (stereo partly drawn) [[^3 H]-dexamethasone, 6,7[^3 H] dexamethasone], the Kd in test [6] turned out to be 0.15 µM.

For the molecule `C[C@]12CC[C@@H]3c4ccc(O)cc4CC[C@H]3[C@@H]1CC[C@@H]2O` [estradiol-17β], in test [4], the “effect on the binding of 8G11-C6 to partially purified glucocorticoid receptor” value is “no effect”. Besides, the “effect … to anti-steroid Fab fragments” value in test [5] is “Neither triamcinolone, nor other steroids such as testosterone and estradiol-17β had any effect”.

For the molecule `CC1(C)O[C@@H]2C[C@H]3[C@@H]4CCC5=CC(=O)C=C[C@]5(C)[C@@]4(F)[C@@H](O)C[C@]3(C)[C@]2(C(=O)CO)O1` [triamcinolone acetonide], the “effect … to anti-steroid Fab fragments” value in test [5] is “did not affect”.

Take “rabbit serum albumin: carrier protein tested alone as inhibitor”: in test [5], the “effect … to anti-steroid Fab fragments” value is reported as “did not affect”.

For the molecule triamcinolone, the Kd in test [1] came out at 0.015 µM; on glucocorticoid receptor, 0.005 µM; in test [2], 0.015 µM; in test [3], 0.0032 µM. Besides, the “effect … to anti-steroid Fab fragments” value in test [5] is “Neither triamcinolone, nor other steroids such as testosterone and estradiol-17β had any effect”.
